TGI data for three compounds are collected here from PubChem BioAssay (NCI).

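Exposure lasted 48 hours, with cells grown in 96-well plates and compounds tested at five concentrations. TGI denotes the concentration required for complete inhibition of growth.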

Test systems include RXF 393 renal; MALME-3M melanoma; CCRF-CEM leukemia; HOP-92 NSCLC; SK-MEL-28 melanoma; UACC-257 melanoma; PC-3 prostate; SF-539 CNS; SF-268 CNS; HOP-62 NSCLC; NCI-H226 lung; M14 melanoma; UACC-62 melanoma; NCI/ADR-RES ovarian; LOX IMVI melanoma; KM12 colon.
Common to all, as to assay: NCI-60 cell line screen, 48 h

Take `Cc1ccc(/C=C2\CCC/C(=C\c3ccc(O)c(CN4CCCCC4)c3)C2=O)cc1`: the TGI in the experiment on RXF 393 renal is 27.1 µM; in the experiment with MALME-3M melanoma, 43.7 µM; in the experiment on CCRF-CEM leukemia it was greater than 29.1 µM; in the experiment on HOP-92 NSCLC, 25.2 µM; with SK-MEL-28 melanoma, greater than 53.5 µM; with UACC-257 melanoma, 25.3 µM. Moreover, the TGI was greater than 47.5 µM in the experiment on PC-3 prostate; 26.6 µM in the experiment with SF-539 CNS; 13 µM with SF-268 CNS; greater than 51.7 µM in the experiment on HOP-62 NSCLC; 23.3 µM in the experiment with NCI-H226 lung; greater than 37.7 µM in the experiment on M14 melanoma. In addition, the TGI in the experiment with UACC-62 melanoma is 9.92 µM; with NCI/ADR-RES ovarian, 12 µM; in the experiment on LOX IMVI melanoma, 10.3 µM; in the experiment with KM12 colon, 8.33 µM.
As to `CC(=NNC(=S)Nc1ccc(C)cc1)c1cccc(C(C)=NNC(=S)Nc2ccc(C)cc2)n1`, the TGI is 72 µM with RXF 393 renal; 46.9 µM in the experiment on MALME-3M melanoma; greater than 100 µM in the experiment with CCRF-CEM leukemia; greater than 100 µM in the experiment on HOP-92 NSCLC; greater than 100 µM with SK-MEL-28 melanoma; 69.7 µM in the experiment with UACC-257 melanoma. The TGI in the experiment with PC-3 prostate is greater than 100 µM; in the experiment on SF-539 CNS it was 28.1 µM; with SF-268 CNS, greater than 100 µM; with HOP-62 NSCLC, 68.7 µM; with NCI-H226 lung it was 73.6 µM; in the experiment with M14 melanoma, 47.7 µM. Moreover, the TGI in the experiment on UACC-62 melanoma was greater than 100 µM; with NCI/ADR-RES ovarian, 58.8 µM; with LOX IMVI melanoma, 91.7 µM; in the experiment with KM12 colon it was greater than 100 µM.
Regarding `Cc1cc(C)n(C2OC(CO)C(O)C(O)C2O)c(=S)c1C#N` (stereo not drawn), the TGI in the experiment with RXF 393 renal, with MALME-3M melanoma, with CCRF-CEM leukemia, in the experiment on HOP-92 NSCLC, in the experiment on SK-MEL-28 melanoma and in the experiment on UACC-257 melanoma was greater than 100 µM throughout. Further, the TGI in the experiment with PC-3 prostate, in the experiment with SF-539 CNS, with SF-268 CNS, in the experiment on HOP-62 NSCLC, in the experiment on NCI-H226 lung and with M14 melanoma was greater than 100 µM in each case. For the same compound, the TGI in the experiment with UACC-62 melanoma, in the experiment on NCI/ADR-RES ovarian, in the experiment on LOX IMVI melanoma and in the experiment with KM12 colon was greater than 100 µM each time.
